Values joined by “and” are separate entries in the source; they are usually repeats but may differ in a detail not shown here. Equal values may be shown once.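 Each compound was tested at five concentrations against cells in 96-well plates for 48 hours. GI50 = concentration required for 50% inhibition of growth. TGI is the concentration that stops growth completely.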
How the values were obtained:
Assay in all cases: DTP human tumour cell line panel, 48 h
[1] = system: CCRF-CEM leukemia
[2] = system: HOP-18 NSCLC
[3] = system: UO-31 renal
[4] = system: OVCAR-8 ovarian
[5] = system: COLO 205 colon
[6] = system: SK-OV-3 ovarian
[7] = system: OVCAR-5 ovarian
[8] = system: MOLT-4 leukemia
[9] = system: DLD-1 colon
[10] = system: NCI/ADR-RES ovarian

Compound | TGI [1] | TGI [2] [µM] | TGI [3] [µM] | TGI [4] [µM] | TGI [5] [µM] | TGI [6] [µM] | TGI [7] [µM] | TGI [8] | TGI [9] [µM] | GI50 [1] | GI50 [2] [µM] | GI50 [3] [µM] | GI50 [4] [µM] | GI50 [5] | GI50 [6] [µM] | GI50 [7] [µM] | GI50 [8] | GI50 [9] [µM] | TGI [10] [µM]
CC(=O)OCC1OC(n2cccnc2=O)C(OC(C)=O)C1OC(C)=O (stereo not drawn) | > 100 µM | > 100 | > 100 | > 100 | > 100 | > 100 | > 100 | > 100 µM | > 100 | – | – | – | – | – | – | – | – | – | –
CCOC(=O)C1=C(C)NC(=O)NC1c1ccc(OC)cc1OC (stereo not drawn) | > 100 µM | > 100 | > 100 | > 100 | > 100 | > 100 | > 100 | > 100 µM | > 100 | – | – | – | – | – | – | – | – | – | –
CC(=O)[CH-]C(=O)c1ccccc1.CC(=O)[CH-]C(=O)c1ccccc1.Cl.[O-]c1ccnc2ccccc12.[O-]c1ccnc2ccccc12.[Ti+4] | > 100 µM | > 100 | > 100 | > 100 | > 100 | > 100 | > 100 | > 100 µM | > 100 | > 100 µM | > 100 | > 100 | > 100 | > 100 µM | > 100 | > 100 | > 100 µM | > 100 | –
CC1(C)C(=O)OC(n2cc(F)c(=O)[nH]c2=O)C1=O (stereo not drawn) | > 100 µM | > 100 | > 100 | > 100 | > 100 | > 100 | > 100 | > 100 µM | > 100 | – | – | – | – | – | – | – | – | – | –
Cc1cccc(NC(=O)C(=O)C(C2OC(=O)c3ccccc32)[N+](=O)[O-])c1C (stereo not drawn) | 20.4 µM | 22.3 | 21.4 | 26.8 | 29.1 | 26.7 | 33.3 | > 100 µM | 23.1 | – | – | – | – | – | – | – | – | – | –
O=C(/C=C/c1ccc(Cl)c(Cl)c1)c1ccccc1Cl | 19.1 µM | 25.3 | 27.8 | 11.8 | 30.6 | 57.8 | 30.4 | 98.4 µM | 10.4 | – | – | – | – | – | – | – | – | – | –
c1ccc(C2=NOC3C4CCC(C4)C23)cc1 (stereo not drawn) | > 100 µM | > 100 | > 100 | > 100 | > 100 | > 100 | > 100 | > 100 µM | > 100 | – | – | – | – | – | – | – | – | – | –
Cc1ccc(S(=O)(=O)OCOS(=O)(=O)c2ccc(C)cc2)cc1 | > 100 µM | > 100 | > 100 | > 100 | > 100 | > 100 | > 100 | > 100 µM | > 100 | – | – | – | – | – | – | – | – | – | –
CCOC(=O)C1=C(OC(OCC)C([Se]c2ccccc2)C(C)C)CCC1 (stereo not drawn) | 27.8 µM | 41.3 | 61 | 27.4 | 31.7 | > 100 | 59.4 | 45.4 µM | 33.8 | – | – | – | – | – | – | – | – | – | –
CNC(=O)ON(C(C)=O)C(=O)NC | > 65.9 µM and 43 µM | 242 | 114 | 235 | 142 | 276 | 276 | > 91.5 µM and 92 µM | 326 | 20.1 µM and 6.17 µM | – | – | – | > 70 µM and 47.5 µM | – | – | 35.7 µM and 19.1 µM | – | 266
CN(C)NC(=O)/C(=C/c1ccc(Cl)cc1)NC(=O)c1ccccc1 | > 100 µM | > 100 | > 100 | > 100 | > 100 | > 100 | > 100 | > 100 µM | > 100 | – | – | – | – | – | – | – | – | – | –
O=C(NC1CC1)c1c(O)[nH]c(=S)[nH]c1=O | > 100 µM | > 100 | > 100 | > 100 | > 100 | > 100 | > 100 | > 100 µM | > 100 | – | – | – | – | – | – | – | – | – | –
CCOC(=O)c1cc(=O)n(C)c(=O)n1C | > 100 µM | > 100 | > 100 | > 100 | > 100 | > 100 | > 100 | > 100 µM | > 100 | – | – | – | – | – | – | – | – | – | –
Cc1ccccc1NC(=O)Cc1nc2ccccc2s1 | 33 µM | 17.2 | 23.7 | 32.4 | > 100 | 43.3 | 36.3 | 41.5 µM | > 100 | – | – | – | – | – | – | – | – | – | –
Nc1cccc2c1-c1c(cccc1[N+](=O)[O-])C2=O | > 100 µM | > 100 | 0.469 | > 100 | > 100 | > 100 | > 100 | > 100 µM | > 100 | – | – | – | – | – | – | – | – | – | –
Cn1[nH]cc2ccc3nc4ccccc4c(=O)c3c21 | > 100 µM | > 100 | 52.3 | > 94.9 | 92.6 | > 100 | 92.8 | > 95.1 µM | > 100 | – | – | – | – | – | – | – | – | – | –
C/C=C/C(=O)Oc1cccc2cccnc12 | 31.7 µM | > 100 | > 84.7 | 54.3 | 35.9 | > 100 | > 100 | > 100 µM | 21 | – | – | – | – | – | – | – | – | – | –
C/C=C(\N=C=S)C(=O)OC1C(COC(C)=O)OC([C@]2(O)CC(=O)C(=N)C(C(=O)O)=C2O)C(O)C1OC1CC(OC)C(O)([C@@H](C)OC(=O)[C@@H](C)CC)C(C)O1 (stereo partly drawn) | 7.45 µM | 30.4 | 33.3 | 15 | 13.3 | 52 | 40.4 | 14 µM | 24.9 | – | – | – | – | – | – | – | – | – | > 100
CN(C)NC1=C([N+](=O)[O-])C=NN(c2ccccc2)C1 | 4.52 µM | 3.25 | 3.19 | 4.16 | 3.27 | 3.46 | 3.04 | 5.05 µM | 3.6 | – | – | – | – | – | – | – | – | – | –
Brc1ccccc2cc(-c3ccccc3)nc1-2 | > 48.5 µM | 13.9 | 25.5 | > 50.2 | 15.8 | 37.8 | 35 | > 92.3 µM | 3.74 | – | – | – | – | – | – | – | – | – | 44.6
O=c1nc2sc3ccccc3c(=O)n2[nH]1 | > 100 µM | > 100 | > 100 | > 100 | > 100 | > 100 | > 100 | > 100 µM | > 100 | – | – | – | – | – | – | – | – | – | –
COc1ccc(CN2C(=O)[C@@H]3Cc4c(OC)c(C)c(OC)c(OC)c4[C@H](/C2=C\c2cc(OC)c(OC)c(C)c2OC)N3C(=O)OC(C)C)cc1 | > 100 µM | > 100 | > 100 | > 100 | > 100 | > 100 | > 100 | > 100 µM | > 100 | – | – | – | – | – | – | – | – | – | –

Source: PubChem BioAssay (NCI)
